According to US7589079B2, “Crystalline and amorphous forms of beta-L-2′-deoxythymidine” (Novartis AG, priority 2002, dated 2009):
≈ marks a conversion by molar mass, not a printed value. Marks after values point to notes of the source that are not given here.

How the values were obtained:
[1] = Approximate solubilities in various solvents at ambient temperature (crystallization screen); assay type: physicochemical
Experimental: A weighed sample of L-dT (usually 20-30 mg) was treated with aliquots of the test solvent. Solvents were either reagent or HPLC grade. The aliquots were usually 100 μL or 500 μL. Between additions the mixture was sonicated. When the solids dissolved, as judged by visual inspection, the solution was filtered, then left in an open vial under ambient conditions (fast evaporation). The procedure was repeated, and the resulting solution was left under ambient conditions in a vial with aluminum foil containing pinholes (slow evaporation). Samples were also generated by filtering a warm solution of L-dT into a cold antisolvent (cold precipitation).
Solubilities were estimated from these experiments based on the total solvent used to give a solution. Note that actual solubilities may be greater than those calculated because of the use of too-large solvent aliquots or a slow rate of dissolution.
Approximate solubilities of L-dT in various solvents at ambient temperature were determined during the crystalline screen, and are summarized in Table 1.

[2] = Moisture sorption/desorption (VTI SGA-100 Vapor Sorption Analyzer); assay type: physicochemical; conditions: for Moisture balance: loss from 95-5% RH: desorption from 95% to 5% RH; for Moisture balance: weight loss at 5% RH: equilibration at 5% RH; for Moisture balance: weight gain at 95% RH: sorption up to 95% RH; for Weight lost upon lowering the relative humidity (in words): lowering relative humidity from 95% RH to 5% RH
Experimental: Moisture sorption/desorption data were collected on a VTI SGA-100 Vapor Sorption Analyzer. Sorption and desorption data were collected over a range of 5% to 95% relative humidity (RH) at 10% RH intervals under a nitrogen purge. Samples were not dried prior to analysis. Equilibrium criteria used for analysis were less than 0.0100% weight change in 5 minutes, with a maximum equilibration time of 3 hours if the weight criterion was not met. Data were not corrected for the initial moisture content of the samples. NaCl and PVP were used as calibration standards.

[3] = solvent 1,1,1,3,3,3-hexafluoroisopropanol
[4] = solvent N,N-dimethylformamide (DMF)
[5] = solvent ethanol (EtOH), after 2 hours, all solid was dissolved

Compound | Solubility [1, 3] [mg/mL] | Solubility ([1]; solvent 2,2,2-trifluoroethanol) [mg/mL] | Solubility ([1]; solvent MeOH:water (1:1)) [mg/mL] | Solubility [1, 4] [mg/mL] | Solubility ([1]; solvent THF:water (1:1)) [mg/mL] | Solubility ([1]; solvent acetone:water (4:1)) [mg/mL] | Solubility [1, 5] | Solubility ([1]; solvent methanol (MeOH)) [mg/mL] | Solubility ([1]; solvent water) [mg/mL] | Weight lost upon lowering the relative humidity (in words) [2] | further results
Cc1cn([C@@H]2C[C@@H](O)[C@H](CO)O2)c(=O)[nH]c1=O [L-dT, beta-L-2′-deoxythymidine] | 22 (≈ 90.8 mM) | 8 (≈ 33 mM) | 58 (≈ 239 mM) | 72 (≈ 297 mM) | 127 (≈ 524 mM) | 51 (≈ 211 mM) | > 4 mg/mL | 11 (≈ 45.4 mM) | 32 (≈ 132 mM) | – | Solubility (in words) ([1]; in acetone, acetonitrile, ethyl acetate, diethyl ether, isopropanol, methylene chloride, and toluene): sparingly soluble
Cc1cn([C@@H]2C[C@@H](O)[C@H](CO)O2)c(=O)[nH]c1=O [Lot No. 1, beta-L-2′-deoxythymidine] | – | – | – | – | – | – | – | – | – | – | Moisture balance: loss from 95-5% RH ([2]; listed as 1): 1.1% loss from 95-5% RH; Moisture balance: weight loss at 5% RH ([2]; listed as 1): <0.1% weight loss at 5% RH; Moisture balance: weight gain at 95% RH ([2]; listed as 1): 1.1% weight gain at 95% RH
Cc1cn([C@@H]2C[C@@H](O)[C@H](CO)O2)c(=O)[nH]c1=O [Lot No. 2, beta-L-2′-deoxythymidine] | – | – | – | – | – | – | – | – | – | – | Moisture balance: loss from 95-5% RH ([2]; listed as 2): 2.7% loss from 95-5% RH; Moisture balance: weight loss at 5% RH ([2]; listed as 2): −0.4% weight loss at 5% RH; Moisture balance: weight gain at 95% RH ([2]; listed as 2): 2.8% weight gain at 95% RH
Cc1cn([C@@H]2C[C@@H](O)[C@H](CO)O2)c(=O)[nH]c1=O [amorphous L-dT, beta-L-2′-deoxythymidine] | – | – | – | – | – | – | – | – | – | loses almost all of this weight | Moisture balance: weight loss at 5% RH [2]: ~0.4%; Moisture sorption: weight gain up to about 55% RH ([2]; sorption up to about 55% RH): ~2.3%
Cc1cn([C@@H]2C[C@@H](O)[C@H](CO)O2)c(=O)[nH]c1=O [crystalline L-dT, beta-L-2′-deoxythymidine] | 22 (≈ 90.8 mM) | 8 (≈ 33 mM) | 58 (≈ 239 mM) | 72 (≈ 297 mM) | 127 (≈ 524 mM) | 51 (≈ 211 mM) | >3.6* mg/mL | 11 (≈ 45.4 mM) | 32 (≈ 132 mM) | All of this weight is lost | Solubility ([1]; solvent acetone): <4 mg/mL; Solubility ([1]; solvent acetonitrile (ACN)): <4 mg/mL; Solubility ([1]; solvent dichloromethane): <3 mg/mL; Solubility ([1]; solvent ethyl acetate (EtOAc)): <4 mg/mL; Solubility ([1]; solvent ethyl ether): <3 mg/mL; Solubility ([1]; solvent hexane): <4 mg/mL; Solubility ([1]; solvent isopropanol IPA): <3 mg/mL; Solubility ([1]; solvent tetrahydrofuran (THF)): 4 mg/mL (≈ 16.5 mM); Solubility ([1]; solvent toluene): <4 mg/mL; Moisture balance: weight gain at 95% RH [2]: 1.1%
